According to patent US20230233439A1, “METHOD FOR COSMETIC TREATMENT BY COMBINED ILLUMINATION AND APPLICATION OF A COMPOSITION COMPRISING NIACINAMIDE, AND ASSOCIATED DEVICE” (LIGHTINDERM, priority 2020, published 2023):

Experiments:
Format in all cases: cell-based
interleukin-6 = assay: Protection of UVA/UVB-irradiated keratinocytes measured by interleukin-6 production
Description: (§1) The inflammation of the cells and the measurement of the antiaging effect are based on the irradiation of a cell culture with a combination of UVA and UVB. […] Pure niacinamide at a concentration of 0.4 mg/mL or 1.2 mg/mL is used. For the treatments inducing illumination at 660 nm, 10 different programs are evaluated. These programs are defined in Table 1 below. [table] […] Free radicals are reactive and induce an inflammatory cascade characterized by the production of proinflammatory proteins (p53, pro-opiomelanocortin (POMC), interleukins, etc.) which can be measured in the cell supernatant. […] According to the protocol, at T+48 h, the cell supernatant is collected and the concentrations of interleukins 6 and 8 are measured and compared to the concentrations of interleukins 6 and 8 produced by cells exposed to UV and not subjected to any of the three abovementioned treatments (UV control) and to untreated and non-irradiated cells (non-irradiated control). A degree of protection of the treated cells relative to the UV control is evaluated according to the following formula: Non-irradiated cells show 100% protection and irradiated cells show 0% protection. […]

procollagen-1 = assay: Procollagen-1 production by fibroblasts exposed to UVA and UVB; settings: niacinamide 0.4 mg/ml combined with illumination at 660 nm, programs 3 and 8; compared with niacinamide alone and with illumination alone; FIG. 3
Description: The inflammation of the cells and the measurement of the antiaging effect are based on the irradiation of a cell culture with a combination of UVA and UVB. […] Pure niacinamide at a concentration of 0.4 mg/mL or 1.2 mg/mL is used. Attention is now focused on skin aging, known as “photoaging”, induced by UV exposure. One of the parameters of cutaneous aging observed clinically is the appearance of wrinkles associated in part with a decrease in collagen production by the cells of the dermis, the fibroblasts. […] The production of procollagen-1 produced by fibroblasts is measured in the supernatants obtained from the previously defined protocol in which the cells were illuminated either without any other treatment or in combination with niacinamide at a concentration of 0.4 mg/ml, and compared with treatment with niacinamide alone at a concentration of 0.4 mg/ml. The results are shown in FIG. 3 for illumination programs 3 and 8.

interleukin-8 = assay: Protection of UVA/UVB-irradiated keratinocytes measured by interleukin-8 production
Description: as §1

[1] = niacinamide 1.2 mg/ml combined with illumination at 660 nm, all illumination programs

NC(=O)c1cccnc1 [niacinamide]
protection of the skin cells (interleukin-6) compared with illumination alone at 660 nm (interleukin-6; [1]): much greater protection
protection of cells exposed to UV (interleukin-6 concentration) (interleukin-6; niacinamide 1.2 mg/ml combined with pulsed illumination at 660 nm, all 10 programs, relative to UV-exposed cells and/or niacinamide alone, FIG. 1): beneficial effect
production of procollagen-1 (procollagen-1): Increased production
protection of the skin cells (interleukin-8) compared with illumination alone at 660 nm (interleukin-8; [1]): much greater protection
protection of cells exposed to UV (interleukin-8 concentration) (interleukin-8; niacinamide 1.2 mg/ml combined with pulsed illumination at 660 nm, all 10 programs, relative to UV-exposed cells and/or niacinamide alone, effects particularly visible, FIG. 2): beneficial effect
